The values that follow come from ChEMBL document CHEMBL4651402, “Screening of ~5500 FDA-approved drugs and clinical candidates for anti-SARS-CoV-2 activity” (2021).

The test system of this assay is SARS-CoV-2. Put plainly: microbe, parasite or virus in culture. To be noted: Severe acute respiratory syndrome coronavirus 2, Vero C1008, 48 h.

Molecule `CCC(CC)CC(=O)c1c(C(=O)OC)c(-c2ccc(OC)c(OC)c2)c2c(OC)c(OC)c(OC)cc2c1O` gave an IC50 above 20 µM. Further, the IC50 (read-out: pIC50 (converted)) was above 20 µM.
Molecule `Oc1ccc(Cl)c2cccnc12` [CLOXYQUIN] yielded an IC50 above 20 µM. For the same molecule, the IC50 (read-out: pIC50 (converted)) was above 20 µM.
Molecule `CN(C)C1CCc2[nH]c3c(F)cc(F)cc3c2C1` (centres undefined) [FLUCINDOLE] registered an IC50 above 20 µM. Also, the IC50 (read-out: pIC50 (converted)) was above 20 µM.
Consider `CN1C(C(=O)Nc2ccccn2)=C(O)c2ccccc2S1(=O)=O` [PIROXICAM], for which the IC50 is above 20 µM. For the same molecule, the IC50 (read-out: pIC50 (converted)) is above 20 µM.
Take `COc1ccc2c(c1)CC[C@H](CN(C)CC(=O)O)[C@@H]2c1ccccc1` [ORG-25935]: the IC50 is above 20 µM. For the same molecule, the IC50 (read-out: pIC50 (converted)) is above 20 µM.
On to `CCCn1cnc2c1c(=O)n(CCCCC(C)=O)c(=O)n2C` [PROPENTOFYLLINE], for which the IC50 was above 20 µM. Moreover, under “read-out: pIC50 (converted)”, the IC50 is above 20 µM.
Molecule `Cc1cc2c(F)c(Oc3ncnn4cc(OC[C@@H](C)OC(=O)[C@H](C)N)c(C)c34)ccc2[nH]1` [BRIVANIB ALANINATE] registered an IC50 above 20 µM. For the same molecule, the IC50 (read-out: pIC50 (converted)) was above 20 µM.
In the case of `O=c1cc(-c2ccccc2)oc2cc(O)ccc12` [7-HYDROXYFLAVONE], the IC50 was above 20 µM. In addition, the IC50 (read-out: pIC50 (converted)) is above 20 µM.
Molecule `Cc1cc(C(C)(C)C)c(O)c(C)c1CC1=NCCN1` [OXYMETAZOLINE] registered an IC50 above 20 µM. Where the note is “read-out: pIC50 (converted)”, the IC50 was above 20 µM.
The molecule `CO[C@H]1C=C2CCN(C)[C@H]2[C@@H]2c3cc4c(cc3C(=O)O[C@H]21)OCO4` (single isomer, unassigned) gave an IC50 above 20 µM. The IC50 (read-out: pIC50 (converted)) was above 20 µM.
The molecule `CN1C[C@H]2C[C@@H]1CN2c1cc2c(cc1F)c(=O)c(C(=O)O)cn2C1CC1` displayed an IC50 above 20 µM. In addition, the IC50 (read-out: pIC50 (converted)) was above 20 µM.
Consider `CC1(C)OC2CC(=O)OCC23C1CC(=O)C1(C)C3CCC2(C)C(c3ccoc3)OC(=O)C3OC321` (centres undefined), for which the IC50 is above 20 µM. In addition, the IC50 (read-out: pIC50 (converted)) was above 20 µM.
The molecule `Cc1ccccc1OCC(O)CNCCOc1ccc(C(N)=O)cc1` (centres undefined) [TOLAMOLOL] came in with an IC50 above 20 µM. The IC50 (read-out: pIC50 (converted)) is above 20 µM.
Molecule `CN(C)c1ccc(O)c2c1C[C@H]1C[C@H]3[C@H](N(C)C)C(O)=C(C(N)=O)C(=O)[C@@]3(O)C(O)=C1C2=O` [MINOCYCLINE] returned an IC50 above 20 µM. Also, the IC50 (read-out: pIC50 (converted)) is above 20 µM.
Turning to `CCOC(=O)c1ccc(OC(=O)CCCCCNC(=N)N)cc1` [GABEXATE], the IC50 is above 20 µM. Besides, the IC50 (read-out: pIC50 (converted)) is above 20 µM.
Molecule `COc1cccc(Nc2ncnn3ccc(CN4CC[C@@H](N)[C@H](O)C4)c23)c1` [BMS-690514] gave an IC50 above 20 µM. Also, the IC50 (read-out: pIC50 (converted)) is above 20 µM.
`C1=N/C2=N/c3ccc(OCCN4CCCC4)c(c3)COC/C=C/COCc3cccc(c3)C(=C1)N2` [PACRITINIB]: the IC50 is above 20 µM. Where the note is “read-out: pIC50 (converted)”, the IC50 is above 20 µM.
The molecule `O=C1OCCN1/N=C\c1ccc([N+](=O)[O-])o1` had an IC50 above 20 µM. For the same molecule, the IC50 (read-out: pIC50 (converted)) is above 20 µM.
`CCOc1ccccc1OCC1CNCCO1` (centres undefined) [VILOXAZINE] displayed an IC50 above 20 µM. In addition, for the setting “read-out: pIC50 (converted)”, the IC50 was above 20 µM.
With `CC1(C)CC(=O)N(CCCCN2CCN(c3ncccn3)CC2)C(=O)C1` [GEPIRONE], the IC50 was above 20 µM. The IC50 (read-out: pIC50 (converted)) is above 20 µM.
Consider `Cc1ccc(NC2=NCCN2)c(Cl)c1` [TOLONIDINE], for which the IC50 was above 20 µM. The IC50 (read-out: pIC50 (converted)) was above 20 µM.
In the case of `Cc1cccc(C)c1NC(=O)C1CCCCN1C` (centres undefined) [MEPIVACAINE], the IC50 was above 20 µM. The IC50 (read-out: pIC50 (converted)) was above 20 µM.
Molecule `CC12CCC(=O)C=C1CCC1C2C(O)CC2(C)C1CCC2(O)C(=O)COP(=O)(O)O` (centres undefined) returned an IC50 above 20 µM. Besides, under “read-out: pIC50 (converted)”, the IC50 was above 20 µM.
The molecule `Cc1cc(CC(=O)O)c(C)n1-c1ccc(Cl)cc1` [CLOPIRAC] came in with an IC50 above 20 µM. The IC50 (read-out: pIC50 (converted)) is above 20 µM.
For `CC(=O)Nc1c(I)cc(I)c(C(=O)O)c1I` [ACETRIZOIC ACID], the IC50 is above 20 µM. Also, under “read-out: pIC50 (converted)”, the IC50 is above 20 µM.
In turn, `NC(=O)N/N=C/c1ccc([N+](=O)[O-])o1` [NITROFURAZONE] showed an IC50 above 20 µM. Also, for the setting “read-out: pIC50 (converted)”, the IC50 was above 20 µM.
Molecule `Cc1onc(-c2ccccc2)c1-c1ccc(S(N)(=O)=O)cc1` [VALDECOXIB] had an IC50 above 20 µM. Also, the IC50 (read-out: pIC50 (converted)) was above 20 µM.
The molecule `NC(=O)OC[C@@H](N)Cc1ccccc1` registered an IC50 above 20 µM. The IC50 (read-out: pIC50 (converted)) was above 20 µM.
In turn, `N=C(N)NC(=N)Nc1ccccc1` [PHENYL BIGUANIDE] gave an IC50 above 20 µM. For the same molecule, for the setting “read-out: pIC50 (converted)”, the IC50 was above 20 µM.
In the case of `CCOC(=O)Nc1ccc2c(c1)N(C(=O)CCN1CCOCC1)c1ccccc1S2` [MORICIZINE], the IC50 was above 20 µM. Moreover, the IC50 (read-out: pIC50 (converted)) is above 20 µM.
In the case of `CC1(C)S[C@@H]2[C@H](NC(=O)Cc3ccccc3)C(=O)N2[C@H]1C(=O)O` [PENICILLIN G], the IC50 was above 20 µM. Further, the IC50 (read-out: pIC50 (converted)) is above 20 µM.
`CCN(CC)CCOC(=O)C1(C2CCCCC2)CCCCC1` [DICYCLOMINE] gave an IC50 above 20 µM. Besides, the IC50 (read-out: pIC50 (converted)) is above 20 µM.
In turn, `Cc1cccc(Nc2ccccc2C(=O)O)c1C` [MEFENAMIC ACID] came in with an IC50 above 20 µM. Moreover, under “read-out: pIC50 (converted)”, the IC50 is above 20 µM.
The molecule `CN1C(C)(C)CC(OC(=O)CCC(=O)OC2CC(C)(C)N(C)C(C)(C)C2)CC1(C)C` [SUXEMERID] gave an IC50 above 20 µM. Also, the IC50 (read-out: pIC50 (converted)) is above 20 µM.
In turn, `CCCCC1(CCCC)CN(c2ccccc2)c2cc(SC)c(OCC(=O)N[C@@H](C(=O)NCC(=O)O)c3ccccc3)cc2S(=O)(=O)C1` [ELOBIXIBAT] came in with an IC50 above 20 µM. Besides, for the setting “read-out: pIC50 (converted)”, the IC50 is above 20 µM.
`O=C1CN=C(c2ccccc2)c2c(sc3c2CCCC3)N1` [BENTAZEPAM] displayed an IC50 above 20 µM. Besides, the IC50 (read-out: pIC50 (converted)) was above 20 µM.
Molecule `CC12C=CC(=O)C=C1CCC1C2C(=O)CC2(C)C1CC[C@]2(O)C(=O)CO` (some centres undefined) showed an IC50 above 20 µM. Under “read-out: pIC50 (converted)”, the IC50 is above 20 µM.
The molecule `Cc1ncc[nH]1` showed an IC50 above 20 µM. Besides, where the note is “read-out: pIC50 (converted)”, the IC50 is above 20 µM.
On to `CCOC(=O)c1c(N)sc2c1CCN(Cc1ccccc1)C2` [TINORIDINE], for which the IC50 was above 20 µM. In addition, the IC50 (read-out: pIC50 (converted)) was above 20 µM.
The molecule `CC1Oc2ccccc2CC1N(C)C` (centres undefined) [TREBENZOMINE] gave an IC50 above 20 µM. For the same molecule, the IC50 (read-out: pIC50 (converted)) was above 20 µM.
`COc1ccc(S(=O)(=O)N(C(C)=O)c2ccccc2/C=C/c2cc[n+]([O-])cc2)cc1` [HMN-214]: the IC50 was above 20 µM. Further, the IC50 (read-out: pIC50 (converted)) is above 20 µM.
For `C=C(c1ccc(C(=O)O)cc1)c1cc2c(cc1C)C(C)(C)CCC2(C)C` [BEXAROTENE], the IC50 was above 20 µM. The IC50 (read-out: pIC50 (converted)) was above 20 µM.
On to `CCCCCCCCCCCCCCC1(C(=O)O)CO1` (centres undefined) [PALMOXIRATE], for which the IC50 was above 20 µM. Further, for the setting “read-out: pIC50 (converted)”, the IC50 was above 20 µM.
`OC[C@H]1O[C@@H](n2cnc3c(NC4CCCC4)ncnc32)[C@H](O)[C@@H]1O` [N6-CYCLOPENTYLADENOSINE] showed an IC50 above 20 µM. In addition, under “read-out: pIC50 (converted)”, the IC50 is above 20 µM.
As to `O=C(OCCN1CCCCCC1)C(c1ccsc1)C1CCCCC1` (centres undefined), the IC50 was above 20 µM. For the same molecule, where the note is “read-out: pIC50 (converted)”, the IC50 was above 20 µM.
With `CN1CCc2cc3c(c4c2[C@@H]1Cc1ccccc1-4)OCO3`, the IC50 is above 20 µM. In addition, the IC50 (read-out: pIC50 (converted)) was above 20 µM.
Turning to `C[C@H]1c2nnn(-c3ncc(F)cn3)c2CCN1C(=O)c1cccc(C(F)(F)F)c1Cl`, the IC50 is above 20 µM. Further, the IC50 (read-out: pIC50 (converted)) is above 20 µM.
